Assay results: patent US20170369444A1, “INHIBITORS OF HISTONE DEMETHYLASES” (Gilead Sciences, Inc., priority 2014, published 2017)

Legend:
KDM4C (JMJD2C) = biological target: T1, KDM4C (JMJD2C) (Homo sapiens, UniProt Q9H3R0); assay: Histone lysine demethylase AlphaLISA assay, KDM4C; type: biochemical; settings: in vitro enzyme, read-out: KDM4C IC50 (HDME Inhibition)
T1 construct: 1-349; host or cells: E. coli
T1 sequence (Q9H3R0 1-349): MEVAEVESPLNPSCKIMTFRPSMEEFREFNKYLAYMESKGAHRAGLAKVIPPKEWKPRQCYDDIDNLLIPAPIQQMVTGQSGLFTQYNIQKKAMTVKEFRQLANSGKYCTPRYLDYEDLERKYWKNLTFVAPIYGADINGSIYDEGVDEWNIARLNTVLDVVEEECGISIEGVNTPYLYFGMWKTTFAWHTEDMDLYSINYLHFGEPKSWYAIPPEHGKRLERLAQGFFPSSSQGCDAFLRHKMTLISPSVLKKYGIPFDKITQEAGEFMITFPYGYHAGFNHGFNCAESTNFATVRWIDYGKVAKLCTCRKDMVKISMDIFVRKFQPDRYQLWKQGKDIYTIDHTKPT

KDM2B (FBXL10) = biological target: T2, KDM2B (FBXL10) (Homo sapiens, UniProt Q8NHM5); assay: Histone lysine demethylase AlphaLISA assay, KDM2B; type: biochemical; settings: in vitro enzyme, read-out: KDM2B IC50 (HDME Inhibition)
T2 construct: 1-650; purchased BPS Bioscience, US; host or cells: Bac (baculovirus/insect cells)
T2 sequence (Q8NHM5 1-650): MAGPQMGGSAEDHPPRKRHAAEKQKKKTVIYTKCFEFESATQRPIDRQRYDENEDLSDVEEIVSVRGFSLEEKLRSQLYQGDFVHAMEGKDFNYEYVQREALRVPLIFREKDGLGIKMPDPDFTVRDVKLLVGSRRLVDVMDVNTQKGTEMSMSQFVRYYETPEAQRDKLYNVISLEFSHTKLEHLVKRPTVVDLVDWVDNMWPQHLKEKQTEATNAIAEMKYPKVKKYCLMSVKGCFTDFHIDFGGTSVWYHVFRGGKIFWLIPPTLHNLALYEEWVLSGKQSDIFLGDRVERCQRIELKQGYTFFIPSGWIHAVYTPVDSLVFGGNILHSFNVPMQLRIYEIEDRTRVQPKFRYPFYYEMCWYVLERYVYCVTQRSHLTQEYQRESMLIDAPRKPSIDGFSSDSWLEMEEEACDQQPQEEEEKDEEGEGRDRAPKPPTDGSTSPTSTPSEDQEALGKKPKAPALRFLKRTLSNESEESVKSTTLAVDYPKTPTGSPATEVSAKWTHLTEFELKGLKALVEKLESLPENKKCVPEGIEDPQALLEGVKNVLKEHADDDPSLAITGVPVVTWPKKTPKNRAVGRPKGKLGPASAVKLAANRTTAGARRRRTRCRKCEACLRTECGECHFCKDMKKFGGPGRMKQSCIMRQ

PHF8 (KDM7) = PHF8 (KDM7) (Homo sapiens, UniProt Q9UPP1); assay: Histone lysine demethylase AlphaLISA assay, PHF8; type: biochemical; settings: in vitro enzyme, read-out: PHF8 IC50 (HDME Inhibition)
KDM6A (UTX) = biological target: T3, KDM6A (UTX) (Homo sapiens, UniProt O15550); assay: Histone lysine demethylase AlphaLISA assay, KDM6A; type: biochemical; settings: in vitro enzyme, read-out: KDM6A IC50 (HDME Inhibition)
T3 construct: 919-1401; host or cells: E. coli

KDM5B (PLU-1) = biological target: T4, KDM5B (PLU-1) (Homo sapiens, UniProt Q9UGL1); assay: Histone lysine demethylase AlphaLISA assay, KDM5B; type: biochemical; settings: in vitro enzyme, read-out: KDM5B IC50 (HDME Inhibition)
T4 construct: 1-809; host or cells: E. coli
T4 sequence (Q9UGL1 1-809): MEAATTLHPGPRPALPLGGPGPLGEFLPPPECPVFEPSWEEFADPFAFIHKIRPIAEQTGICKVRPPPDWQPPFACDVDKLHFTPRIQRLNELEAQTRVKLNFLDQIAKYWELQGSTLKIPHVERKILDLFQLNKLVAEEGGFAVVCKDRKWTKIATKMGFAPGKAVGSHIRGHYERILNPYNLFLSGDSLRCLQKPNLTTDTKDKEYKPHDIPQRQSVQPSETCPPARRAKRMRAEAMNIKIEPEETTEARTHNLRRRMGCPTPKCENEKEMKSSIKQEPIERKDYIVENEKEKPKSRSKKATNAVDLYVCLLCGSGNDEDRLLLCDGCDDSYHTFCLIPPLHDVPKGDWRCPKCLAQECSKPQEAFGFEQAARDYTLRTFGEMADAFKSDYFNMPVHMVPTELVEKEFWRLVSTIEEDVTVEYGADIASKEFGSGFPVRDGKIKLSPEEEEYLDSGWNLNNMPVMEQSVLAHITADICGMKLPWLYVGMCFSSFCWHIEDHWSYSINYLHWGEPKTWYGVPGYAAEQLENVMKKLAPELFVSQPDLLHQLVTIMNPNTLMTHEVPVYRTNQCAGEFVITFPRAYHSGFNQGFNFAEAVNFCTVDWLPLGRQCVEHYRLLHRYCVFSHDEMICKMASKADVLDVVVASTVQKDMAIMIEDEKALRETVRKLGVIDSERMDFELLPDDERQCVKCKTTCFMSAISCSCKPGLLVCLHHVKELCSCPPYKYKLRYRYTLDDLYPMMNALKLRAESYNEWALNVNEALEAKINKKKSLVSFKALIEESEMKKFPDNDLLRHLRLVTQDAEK

[1] = test system: H3K4me3 mark in U2OS cells; assay: Histone lysine demethylase immunofluorescence assay, non-transfected U2OS cells; type: cell-based; settings: Homo sapiens, 20 hours incubation, read-out: IC50 value, staining of the H3K4me3 mark in cells
Experimental: Generally, the cells are incubated with compounds, washed and incubated with a methylation specific antibody before imaging. IC50 values are determined by measurement of the H3K4me3 staining.
Histone Lysine Demethylase Immunofluorescence Assays for IC50 value Determination, non-transfected cells
U2OS cells are harvested and seeded into multi well plates into media containing compound. The media is DMEM containing 5% FBS and pen/strep. 20 hours after incubation of cells with compounds, the cells are washed once in PBS, harvested by fixation with formaldehyde 4% aqueous solution, and washed in PBS. Subsequently, the cells are permeabilized in PBS with 0.2% Triton X-100. Blocking is performed in PBS with 0.2% Triton X-100 and 5% FBS. The cells are incubated with αH3K4me3 primary antibody (Cell Signaling, #9751S) in blocking solution over night at 4° C. After incubation with primary antibody, the cells are washed with PBS, incubated with secondary antibody (Alexa fluor 594 goat anti rabbit IgG, Invitrogen, A11012) and Hoechst, (Sigma, 33342) in blocking solution, and washed again with PBS. Finally, PBS is added and high throughput imaging and analysis are performed by an IN Cell Analyzer 1000 (GE Healthcare). IC50 values are determined based on an average measure of the staining of the H3K4me3 mark in cells.

Chain of PHF8 (KDM7) (Q9UPP1 whole entry): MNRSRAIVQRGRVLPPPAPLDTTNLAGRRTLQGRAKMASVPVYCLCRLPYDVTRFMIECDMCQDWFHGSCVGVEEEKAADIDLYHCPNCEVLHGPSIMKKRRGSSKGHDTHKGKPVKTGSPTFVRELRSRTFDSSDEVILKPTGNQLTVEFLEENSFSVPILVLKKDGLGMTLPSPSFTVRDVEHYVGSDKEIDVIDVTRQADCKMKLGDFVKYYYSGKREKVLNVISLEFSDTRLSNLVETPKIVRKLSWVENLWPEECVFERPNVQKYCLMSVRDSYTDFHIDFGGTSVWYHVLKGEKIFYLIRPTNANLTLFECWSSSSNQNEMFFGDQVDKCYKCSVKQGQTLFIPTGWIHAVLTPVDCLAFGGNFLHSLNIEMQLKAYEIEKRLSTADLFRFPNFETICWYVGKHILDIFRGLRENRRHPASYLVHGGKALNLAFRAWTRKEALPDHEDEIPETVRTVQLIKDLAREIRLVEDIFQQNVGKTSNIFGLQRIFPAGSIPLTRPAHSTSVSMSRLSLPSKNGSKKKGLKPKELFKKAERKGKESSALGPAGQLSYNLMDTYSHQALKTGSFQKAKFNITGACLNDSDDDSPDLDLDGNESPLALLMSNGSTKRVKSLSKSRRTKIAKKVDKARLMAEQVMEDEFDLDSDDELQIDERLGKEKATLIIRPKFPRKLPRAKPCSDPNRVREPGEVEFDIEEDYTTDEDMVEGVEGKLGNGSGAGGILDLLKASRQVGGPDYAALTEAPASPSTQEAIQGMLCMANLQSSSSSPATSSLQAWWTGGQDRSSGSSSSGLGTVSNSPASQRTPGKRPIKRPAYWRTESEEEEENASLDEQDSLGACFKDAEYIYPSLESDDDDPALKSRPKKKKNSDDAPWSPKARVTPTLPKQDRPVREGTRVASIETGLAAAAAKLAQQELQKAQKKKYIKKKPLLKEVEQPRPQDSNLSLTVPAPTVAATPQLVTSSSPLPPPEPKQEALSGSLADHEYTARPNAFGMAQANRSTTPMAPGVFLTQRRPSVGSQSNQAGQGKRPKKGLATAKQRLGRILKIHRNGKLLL
T3 sequence (O15550 919-1401): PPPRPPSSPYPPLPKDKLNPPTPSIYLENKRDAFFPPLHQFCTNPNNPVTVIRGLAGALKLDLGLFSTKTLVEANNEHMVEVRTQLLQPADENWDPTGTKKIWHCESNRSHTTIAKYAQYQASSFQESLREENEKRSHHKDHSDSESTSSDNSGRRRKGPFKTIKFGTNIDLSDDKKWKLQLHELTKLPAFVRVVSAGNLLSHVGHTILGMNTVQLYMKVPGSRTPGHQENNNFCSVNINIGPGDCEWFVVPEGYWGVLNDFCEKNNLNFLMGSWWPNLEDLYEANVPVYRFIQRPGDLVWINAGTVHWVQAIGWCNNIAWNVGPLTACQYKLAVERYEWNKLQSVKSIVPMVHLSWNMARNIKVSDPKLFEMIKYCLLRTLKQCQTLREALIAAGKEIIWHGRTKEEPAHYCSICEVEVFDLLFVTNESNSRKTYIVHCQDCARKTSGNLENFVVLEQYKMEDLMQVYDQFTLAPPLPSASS

Row | IC50 (KDM4C (JMJD2C)) [nM] | IC50 (KDM2B (FBXL10)) [nM] | IC50 (PHF8 (KDM7)) [nM] | IC50 (KDM6A (UTX)) [nM] | IC50 (KDM5B (PLU-1)) [nM] | IC50 [1] [nM] | SMILES
1 | 250 to 2500 | 250 to 2500 | 250 to 2500 | > 2500 | < 250 | – | C[C@H](c1ccccc1)N1CCC[C@@H](CNCc2cc(C(=O)O)ccn2)C1=O [Compound 14, 2-[({[(3S)-2-oxo-1-[(1R)-1-phenylethyl]piperidin-3-yl]methyl}amino)methyl]pyridine-4-carboxylic acid]
2 | 250 to 2500 | 250 to 2500 | 250 to 2500 | > 2500 | < 250 | – | NC(=O)CCN(CC(=O)N1CCCCC1)Cc1cc(C(=O)O)ccn1 [Compound 34, 2-{[(2-carbamoylethyl)[2-oxo-2-(piperidin-1-yl)ethyl]amino]methyl} pyridine-4-carboxylic acid]
3 | 250 to 2500 | > 2500 | 250 to 2500 | > 2500 | < 250 | – | Cc1cn2c(n1)CCN(Cc1cc(C(=O)O)ccn1)CC2 [Compound 69, 2-({2-methyl-5H,6H,7H,8H,9H-imidazo[1,2-d][1,4]diazepin-7-yl}methyl)pyridine-4-carboxylic acid]
4 | 250 to 2500 | < 250 | 250 to 2500 | > 2500 | < 250 | – | COc1ccc([C@@H](C)N2CCC[C@@H](CNCc3cc(C(=O)O)ccn3)C2=O)cc1 [Compound 80, 2-[({[(3S)-1-[(1R)-1-(4-methoxyphenyl)ethyl]-2-oxopiperidin-3-yl]methyl}amino)methyl]pyridine-4-carboxylic acid]

More lines, now with the values behind:

Row | SMILES | IC50 (KDM4C (JMJD2C)) [nM] | IC50 (KDM2B (FBXL10)) [nM] | IC50 (PHF8 (KDM7)) [nM] | IC50 (KDM6A (UTX)) [nM] | IC50 (KDM5B (PLU-1)) [nM] | IC50 [1] [nM]
5 | C[C@H](c1ccccc1)N1CCC[C@H](CNCc2cc(C(=O)O)ccn2)C1=O [Compound 2, 2-[({[(3R)-2-oxo-1-[(1R)-1-phenylethyl]piperidin-3-yl]methyl}amino)methyl]pyridine-4-carboxylic acid] | < 250 | < 250 | 250 to 2500 | > 2500 | < 250 | –
6 | C[C@H](c1ccccc1)N1CC[C@@H](CNCc2cc(C(=O)O)ccn2)C1=O [Compound 17, 2-[({[(3S)-2-oxo-1-[(1R)-1-phenylethyl]pyrrolidin-3-yl]methyl}amino)methyl]pyridine-4-carboxylic acid] | 250 to 2500 | < 250 | 250 to 2500 | > 2500 | < 250 | –
7 | C=CCN(CC=C)C(=O)[C@@H](CCS(C)(=O)=O)NCc1cc(C(=O)O)ccn1 [Compound 37, 2-({[(1R)-1-[bis(prop-2-en-1-yl)carbamoyl]-3-methanesulfonylpropyl]amino}methyl)pyridine-4-carboxylic acid] | > 2500 | < 250 | < 250 | > 2500 | 250 to 2500 | –
8 | CCN1CCC(CNCc2cc(C(=O)O)ccn2)C1=O (stereo not shown) [Compound 39, 2-({[(1-ethyl-2-oxopyrrolidin-3-yl)methyl]amino}methyl)pyridine-4-carboxylic acid] | 250 to 2500 | < 250 | 250 to 2500 | > 2500 | < 250 | –
9 | COc1ccc([C@@H](C)N2CCC[C@H](CNCc3cc(C(=O)O)ccn3)C2=O)cc1 [Compound 81, 2-[({[(3R)-1-[(1R)-1-(4-methoxyphenyl)ethyl]-2-oxopiperidin-3-yl]methyl}amino)methyl]pyridine-4-carboxylic acid] | 250 to 2500 | < 250 | 250 to 2500 | > 2500 | < 250 | –
10 | O=C(N1CC2(CC2)COC1c1ccnc(CN2CCCn3ccnc3C2)c1)C(F)(F)F (stereo not shown) [Compound 108, 2,2,2-trifluoro-1-[6-(2-{5H,6H,7H,8H,9H-imidazo[1,2-a][1,4]diazepin-8-ylmethyl}pyridin-4-yl)-5-oxa-7-azaspiro[2.5]octan-7-yl]ethan-1-one] | 250 to 2500 | 250 to 2500 | – | – | < 250 | < 2500
